Calls of active or inactive are those of the source.
Experiments:
[1] = target: Voltage-dependent T-type calcium channel subunit alpha-1H (Homo sapiens, UniProt O95180); format: functional;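 further: channel activity triggered by adding a high calcium stimulation buffer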
Beta-galactosidase = Beta-galactosidase (Escherichia coli, UniProt Q8VNN2); assay: PubChem AID 485352; format: functional
[2] = target: T1, Type-1 angiotensin II receptor (Homo sapiens, UniProt P30556); assay: AT1 receptor antagonists, dose response, selectivity assay for APJ receptor antagonist project, cell-based, uHTS hits (AID 463214); format: functional;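 further: antagonist potency against angiotensin II stimulated AT1 response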
T1 sequence (P30556 whole entry): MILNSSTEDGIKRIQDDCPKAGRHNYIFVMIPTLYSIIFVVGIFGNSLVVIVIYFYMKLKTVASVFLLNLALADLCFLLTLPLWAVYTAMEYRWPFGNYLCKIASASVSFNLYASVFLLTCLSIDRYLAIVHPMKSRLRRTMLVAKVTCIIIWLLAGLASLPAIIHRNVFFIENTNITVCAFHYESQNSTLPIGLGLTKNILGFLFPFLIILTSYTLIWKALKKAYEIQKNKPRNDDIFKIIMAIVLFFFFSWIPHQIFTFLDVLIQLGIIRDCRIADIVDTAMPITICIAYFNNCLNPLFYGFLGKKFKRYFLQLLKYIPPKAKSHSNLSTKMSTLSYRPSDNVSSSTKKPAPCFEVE

Aminopeptidase N = target: T2, Aminopeptidase N (Plasmodium falciparum FcB1/Columbia, UniProt O96935); assay: P. falciparum M1AAP inhibitors, biochemical, fluorogenic H-Leu-NHMec substrate, 1536-well (AID 1445); parameters: species or system Plasmodium falciparum 3D7, 3D7
T2 sequence (O96935 whole entry): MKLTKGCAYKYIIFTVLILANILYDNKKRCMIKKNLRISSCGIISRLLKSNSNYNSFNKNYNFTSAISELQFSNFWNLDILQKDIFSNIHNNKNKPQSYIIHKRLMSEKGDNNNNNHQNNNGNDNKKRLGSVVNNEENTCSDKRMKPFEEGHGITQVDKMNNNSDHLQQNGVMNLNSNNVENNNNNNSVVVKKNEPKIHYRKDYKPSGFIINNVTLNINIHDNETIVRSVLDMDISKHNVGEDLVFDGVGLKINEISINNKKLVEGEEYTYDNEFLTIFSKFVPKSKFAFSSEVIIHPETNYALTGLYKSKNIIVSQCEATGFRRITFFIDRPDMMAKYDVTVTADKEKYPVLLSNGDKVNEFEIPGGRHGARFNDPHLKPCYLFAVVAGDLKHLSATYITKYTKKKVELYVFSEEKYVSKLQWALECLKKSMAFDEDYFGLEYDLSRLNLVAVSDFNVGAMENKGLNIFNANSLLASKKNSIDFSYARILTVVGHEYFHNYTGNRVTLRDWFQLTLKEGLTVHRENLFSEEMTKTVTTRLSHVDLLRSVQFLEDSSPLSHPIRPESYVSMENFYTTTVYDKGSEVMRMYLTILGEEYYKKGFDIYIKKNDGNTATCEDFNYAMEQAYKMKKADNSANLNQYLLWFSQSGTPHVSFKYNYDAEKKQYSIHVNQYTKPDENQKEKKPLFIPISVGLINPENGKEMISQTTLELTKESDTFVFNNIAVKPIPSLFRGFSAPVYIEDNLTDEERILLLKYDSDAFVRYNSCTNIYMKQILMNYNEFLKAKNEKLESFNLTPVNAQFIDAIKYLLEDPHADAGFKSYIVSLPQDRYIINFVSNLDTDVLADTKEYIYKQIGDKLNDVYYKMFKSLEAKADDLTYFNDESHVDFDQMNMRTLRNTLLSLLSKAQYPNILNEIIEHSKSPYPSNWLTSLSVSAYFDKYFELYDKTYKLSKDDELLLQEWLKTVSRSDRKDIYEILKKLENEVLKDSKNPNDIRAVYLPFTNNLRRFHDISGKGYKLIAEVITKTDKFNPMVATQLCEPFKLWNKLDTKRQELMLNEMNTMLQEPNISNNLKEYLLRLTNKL

[3] = target: T3, Polyadenylate-binding protein 1 (Homo sapiens, UniProt P11940); assay: PABP1 MLLE–PAM2 interaction inhibitors, dose response, miRNA deadenylation inhibitor project, biochemical, fluorescence polarization, Cy5-PAM2 peptide, secondary (AID 602260); format: functional; conditions: read-out: IC50_Mean
[4] = target: T3, Polyadenylate-binding protein 1; assay: PABP1 MLLE–PAM2 binding inhibitor potency, dose response, biochemical, fluorescence polarization, FITC-PAM2 peptide (AID 602259); format: functional; conditions: read-out: IC50_Mean
Escherichia coli = assay: microbe, parasite or virus in culture
[5] = target: T4, Alkaline phosphatase, tissue-nonspecific isozyme (Homo sapiens, UniProt P05186); assay: human TNAP enzyme inhibitors, SAR follow-up, biochemical, luminescent, dose response (AID 1056)
T4 sequence (P05186 whole entry): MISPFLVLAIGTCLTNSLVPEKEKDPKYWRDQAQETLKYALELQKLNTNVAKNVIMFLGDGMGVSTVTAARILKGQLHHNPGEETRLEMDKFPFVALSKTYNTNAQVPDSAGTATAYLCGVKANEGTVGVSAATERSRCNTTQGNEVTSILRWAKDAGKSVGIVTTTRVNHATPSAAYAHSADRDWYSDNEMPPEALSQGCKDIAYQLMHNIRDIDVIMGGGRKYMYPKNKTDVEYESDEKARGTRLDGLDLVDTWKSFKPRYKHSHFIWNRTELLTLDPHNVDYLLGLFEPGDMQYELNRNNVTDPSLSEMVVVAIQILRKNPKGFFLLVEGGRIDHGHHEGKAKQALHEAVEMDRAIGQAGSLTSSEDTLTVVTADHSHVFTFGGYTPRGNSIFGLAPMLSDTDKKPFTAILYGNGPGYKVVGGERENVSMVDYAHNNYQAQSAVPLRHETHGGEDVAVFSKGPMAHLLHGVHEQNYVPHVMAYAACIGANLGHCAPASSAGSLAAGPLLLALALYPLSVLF

[6] = cytotoxicity in HEK-293T cells, dose response, cytotoxicity control for BCR NF-kB inhibitor project, luminescence, B-cell screen hits (AID 489021); format: functional, cell-based;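 further: HEK-293T cells carrying an NF-kB luciferase reporter; cells exposed to compound for about 14 hours before viability readout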
[7] = target: Alkaline phosphatase, placental type (Homo sapiens, UniProt P05187); assay: PLAP enzyme inhibitors, confirmation, biochemical, luminescence (AID 1512); format: functional
Vero = assay: cells; format: functional, cell-based; conditions: Chlorocebus sabaeus

Sequence of Voltage-dependent T-type calcium channel subunit alpha-1H (O95180 whole entry): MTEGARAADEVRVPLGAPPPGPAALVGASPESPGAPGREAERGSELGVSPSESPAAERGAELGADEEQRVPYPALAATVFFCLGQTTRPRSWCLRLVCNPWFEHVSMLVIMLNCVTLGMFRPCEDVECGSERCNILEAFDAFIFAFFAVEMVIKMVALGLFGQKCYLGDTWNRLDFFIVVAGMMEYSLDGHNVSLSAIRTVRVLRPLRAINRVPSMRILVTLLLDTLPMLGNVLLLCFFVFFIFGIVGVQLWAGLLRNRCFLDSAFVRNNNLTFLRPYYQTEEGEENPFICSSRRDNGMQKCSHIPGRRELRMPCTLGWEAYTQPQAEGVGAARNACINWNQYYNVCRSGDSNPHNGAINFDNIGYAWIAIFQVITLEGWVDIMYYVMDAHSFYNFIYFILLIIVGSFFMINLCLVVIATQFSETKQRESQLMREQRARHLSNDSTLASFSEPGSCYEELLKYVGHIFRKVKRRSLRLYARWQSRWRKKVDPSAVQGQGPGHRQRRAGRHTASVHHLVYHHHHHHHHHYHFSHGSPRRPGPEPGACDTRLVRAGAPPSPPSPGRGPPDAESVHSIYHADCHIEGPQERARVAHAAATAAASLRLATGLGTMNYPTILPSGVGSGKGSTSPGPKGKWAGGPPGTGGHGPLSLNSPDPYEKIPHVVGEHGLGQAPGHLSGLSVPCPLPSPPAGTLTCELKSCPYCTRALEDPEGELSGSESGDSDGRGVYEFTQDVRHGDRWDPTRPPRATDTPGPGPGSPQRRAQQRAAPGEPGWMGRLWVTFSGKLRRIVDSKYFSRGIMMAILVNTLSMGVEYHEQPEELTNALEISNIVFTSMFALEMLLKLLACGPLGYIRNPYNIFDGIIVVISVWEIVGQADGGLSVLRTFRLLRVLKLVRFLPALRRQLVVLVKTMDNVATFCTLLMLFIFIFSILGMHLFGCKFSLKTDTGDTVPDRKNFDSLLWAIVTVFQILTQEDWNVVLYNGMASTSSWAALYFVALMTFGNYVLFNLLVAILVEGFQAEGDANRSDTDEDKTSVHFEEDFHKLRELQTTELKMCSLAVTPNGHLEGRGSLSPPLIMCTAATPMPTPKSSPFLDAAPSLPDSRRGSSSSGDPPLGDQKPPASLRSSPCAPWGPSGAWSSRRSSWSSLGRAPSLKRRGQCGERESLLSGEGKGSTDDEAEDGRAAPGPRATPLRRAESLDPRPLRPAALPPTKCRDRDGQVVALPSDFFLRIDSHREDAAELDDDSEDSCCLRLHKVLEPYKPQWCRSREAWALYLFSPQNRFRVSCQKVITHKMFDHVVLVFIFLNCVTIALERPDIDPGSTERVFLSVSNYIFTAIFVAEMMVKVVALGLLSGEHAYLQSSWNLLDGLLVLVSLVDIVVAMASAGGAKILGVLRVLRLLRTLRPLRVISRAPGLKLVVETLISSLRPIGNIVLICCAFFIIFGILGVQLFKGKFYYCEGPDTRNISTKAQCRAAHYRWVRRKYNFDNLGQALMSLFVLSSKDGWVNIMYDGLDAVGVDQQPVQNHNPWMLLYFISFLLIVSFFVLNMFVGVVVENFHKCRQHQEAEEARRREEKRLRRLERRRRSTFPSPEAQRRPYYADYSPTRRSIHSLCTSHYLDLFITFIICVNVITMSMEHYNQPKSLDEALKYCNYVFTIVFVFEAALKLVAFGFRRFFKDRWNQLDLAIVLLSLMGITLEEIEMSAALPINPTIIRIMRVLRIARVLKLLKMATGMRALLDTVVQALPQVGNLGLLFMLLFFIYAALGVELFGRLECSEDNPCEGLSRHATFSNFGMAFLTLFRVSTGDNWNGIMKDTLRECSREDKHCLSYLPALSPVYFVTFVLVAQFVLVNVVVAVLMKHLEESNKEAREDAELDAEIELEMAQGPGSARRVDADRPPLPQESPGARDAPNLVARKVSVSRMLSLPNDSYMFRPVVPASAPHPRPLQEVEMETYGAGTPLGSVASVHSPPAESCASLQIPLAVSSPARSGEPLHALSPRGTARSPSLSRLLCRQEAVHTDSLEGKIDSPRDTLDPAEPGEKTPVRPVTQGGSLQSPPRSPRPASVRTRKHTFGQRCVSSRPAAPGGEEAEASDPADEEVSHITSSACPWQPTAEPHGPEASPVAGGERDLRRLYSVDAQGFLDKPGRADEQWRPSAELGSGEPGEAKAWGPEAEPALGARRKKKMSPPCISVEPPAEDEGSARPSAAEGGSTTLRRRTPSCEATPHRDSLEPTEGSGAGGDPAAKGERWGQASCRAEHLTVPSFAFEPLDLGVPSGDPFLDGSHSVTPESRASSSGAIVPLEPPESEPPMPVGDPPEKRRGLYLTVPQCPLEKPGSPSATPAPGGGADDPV
T3 sequence (P11940 whole entry): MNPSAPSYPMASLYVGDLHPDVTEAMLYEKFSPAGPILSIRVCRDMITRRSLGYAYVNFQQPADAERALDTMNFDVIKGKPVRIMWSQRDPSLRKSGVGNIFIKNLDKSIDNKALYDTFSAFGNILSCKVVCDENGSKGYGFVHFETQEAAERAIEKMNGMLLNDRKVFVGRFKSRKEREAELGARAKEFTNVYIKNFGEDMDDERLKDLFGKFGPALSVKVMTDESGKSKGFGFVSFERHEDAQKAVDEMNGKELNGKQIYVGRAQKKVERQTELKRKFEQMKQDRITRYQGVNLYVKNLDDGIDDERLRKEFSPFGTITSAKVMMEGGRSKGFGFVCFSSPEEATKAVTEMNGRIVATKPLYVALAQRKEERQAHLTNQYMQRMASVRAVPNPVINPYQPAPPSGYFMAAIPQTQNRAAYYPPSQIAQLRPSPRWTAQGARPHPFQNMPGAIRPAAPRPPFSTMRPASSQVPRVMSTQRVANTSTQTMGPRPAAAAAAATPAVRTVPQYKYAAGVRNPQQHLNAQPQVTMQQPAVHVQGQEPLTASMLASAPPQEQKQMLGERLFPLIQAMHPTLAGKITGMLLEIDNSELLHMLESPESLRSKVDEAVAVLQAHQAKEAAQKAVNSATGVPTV
Sequence of Alkaline phosphatase, placental type (P05187 whole entry): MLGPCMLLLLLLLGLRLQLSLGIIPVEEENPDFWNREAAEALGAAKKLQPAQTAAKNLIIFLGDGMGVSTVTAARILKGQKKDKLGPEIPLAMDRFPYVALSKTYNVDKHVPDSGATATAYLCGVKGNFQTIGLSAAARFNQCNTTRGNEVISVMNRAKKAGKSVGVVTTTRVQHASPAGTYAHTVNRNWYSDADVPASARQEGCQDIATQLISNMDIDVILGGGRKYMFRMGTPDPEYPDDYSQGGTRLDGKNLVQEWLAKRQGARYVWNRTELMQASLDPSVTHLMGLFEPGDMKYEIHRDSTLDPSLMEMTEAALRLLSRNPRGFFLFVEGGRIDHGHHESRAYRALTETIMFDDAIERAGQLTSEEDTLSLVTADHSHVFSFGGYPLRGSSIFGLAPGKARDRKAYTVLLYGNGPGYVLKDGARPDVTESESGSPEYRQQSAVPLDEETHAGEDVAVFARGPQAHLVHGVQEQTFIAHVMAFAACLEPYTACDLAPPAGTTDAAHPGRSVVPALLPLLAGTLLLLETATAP
Sequence of Beta-galactosidase (Q8VNN2 whole entry): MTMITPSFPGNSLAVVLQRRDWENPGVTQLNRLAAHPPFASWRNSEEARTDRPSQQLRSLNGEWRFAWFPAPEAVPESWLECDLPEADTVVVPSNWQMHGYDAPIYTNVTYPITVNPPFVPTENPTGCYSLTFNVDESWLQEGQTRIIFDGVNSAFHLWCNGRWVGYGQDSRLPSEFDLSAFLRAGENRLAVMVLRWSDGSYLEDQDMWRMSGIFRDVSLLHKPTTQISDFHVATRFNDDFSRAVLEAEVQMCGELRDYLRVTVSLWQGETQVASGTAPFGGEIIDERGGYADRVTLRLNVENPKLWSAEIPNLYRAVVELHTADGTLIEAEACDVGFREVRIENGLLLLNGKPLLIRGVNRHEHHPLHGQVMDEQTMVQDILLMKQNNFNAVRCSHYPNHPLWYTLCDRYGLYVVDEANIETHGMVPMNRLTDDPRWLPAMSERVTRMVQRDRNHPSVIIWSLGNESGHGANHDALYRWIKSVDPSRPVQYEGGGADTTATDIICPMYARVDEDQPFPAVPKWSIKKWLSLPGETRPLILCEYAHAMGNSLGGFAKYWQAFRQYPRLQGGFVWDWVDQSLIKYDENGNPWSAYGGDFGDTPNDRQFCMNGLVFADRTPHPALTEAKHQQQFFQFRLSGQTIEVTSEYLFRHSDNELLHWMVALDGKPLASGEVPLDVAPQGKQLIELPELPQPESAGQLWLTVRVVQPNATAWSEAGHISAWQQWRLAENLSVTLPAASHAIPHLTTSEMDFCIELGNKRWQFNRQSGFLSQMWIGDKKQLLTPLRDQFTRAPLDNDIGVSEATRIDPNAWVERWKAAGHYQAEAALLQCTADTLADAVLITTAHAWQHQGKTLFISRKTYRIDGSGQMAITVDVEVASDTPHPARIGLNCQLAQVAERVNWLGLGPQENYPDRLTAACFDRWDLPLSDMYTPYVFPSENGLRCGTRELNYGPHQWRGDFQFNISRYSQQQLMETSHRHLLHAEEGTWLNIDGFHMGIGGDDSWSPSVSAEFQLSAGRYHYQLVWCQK

Cc1cccc(-c2nc(C[S+]([O-])CC(=O)NCCCSC3CCCCC3)c(C)o2)c1 (stereo unspecified)
EC50 [1]: 3.94 µM (active)

O=C(CN1C(=O)C2C3CCC(C3)C2C1=O)OCC(=O)c1cccc([N+](=O)[O-])c1 (stereo unspecified)
EC50 (Beta-galactosidase): > 40 µM (inactive)
IC50 [2]: 26.3 µM (not active)

O=C(NC1CCN(C(=O)NCc2ccccc2)CC1)c1ccco1
IC50 (Aminopeptidase N): 93.2 µM (active)

COc1ccc(S(=O)(=O)N2CCN(c3ccc(C)cc3C)CC2)cc1OC
EC50 [1]: 9.63 µM (active)

Cc1cc2cc(CNC(=O)c3ccc(Br)o3)ccc2[nH]1
EC50 [1]: 10.1 µM (active)
IC50 [3]: 45.1 µM (inactive)
IC50 [4]: 49.6 µM (inactive)

CC(C)(C)n1nnnc1C(c1cc2cc3c(cc2nc1O)OCCO3)N1CCSCC1 (stereo unspecified)
AC50 (Escherichia coli): 28.6 µM (active)

O=C(Cn1cnc2ccccc21)c1ccc(O)c(O)c1
IC50 [5]: 14 µM (active)

NS(=O)(=O)c1ccc(NC(=O)CSc2nnc(-c3ccc(O)cc3)o2)cc1
AC50 (Escherichia coli): 127 µM (active)

COc1cc(/C(C)=N\NC(N)=S)cc(OC)c1OC
IC50 [6]: > 80 µM (inactive)

COc1ccc(-c2nnc(SCC(=O)c3ccc(O)c(O)c3)n2-c2ccccc2)cc1
IC50 [7]: 7.22 µM (active)
IC50 [5]: > 100 µM (inactive)

Cc1ccc2c(Cl)cc(Cl)c(O)c2n1 [CHLORQUINALDOL]
IC50 (Vero): > 25 µM (active)
AC50 (Escherichia coli): 54.3 µM (active)
